Data set [1] addresses Delta-type opioid receptor (Homo sapiens, UniProt P41143). Kind of data set: Displacement of [3H]-DADLE from human delta opioid receptor expressed in HEK293 cells after 90 mins by scintillation counting method. In kind it is cell-based. On the technique in general: Displacement assays read how much labelled ligand stays bound in the presence of the test substance.
Data set [2] can be described thus: Half life in Sprague-Dawley rat plasma at 0.5 mg/kg, iv. In kind it is ADME, organism-based.
Data set [3] has as its target Cytochrome P450 1A2 (Homo sapiens, UniProt P05177). Nature of the data set: Inhibition of CYP1A2 (unknown origin). In kind it is ADME.
Data set [4] deals with Cytochrome P450 2C9 (Homo sapiens, UniProt P11712). Nature of the data set: Inhibition of CYP2C9 (unknown origin). In kind it is ADME.
For data set [5], the target named is Cytochrome P450 2C19 (Homo sapiens, UniProt P33261). Nature of the data set: Inhibition of CYP2C19 (unknown origin). In kind it is ADME.
Data set [6] addresses Cytochrome P450 2D6 (Homo sapiens, UniProt P10635). Nature of the data set: Inhibition of CYP2D6 (unknown origin). In kind it is ADME.
Data set [7] addresses Cytochrome P450 3A4 (Homo sapiens, UniProt P08684). Nature of the data set: Inhibition of CYP3A4 (unknown origin). In kind it is ADME.
Data set [8] in a line: Metabolic stability in human plasma assessed as parent compound remaining after 120 mins. In kind it is ADME, cell-free. The following applies: read-out: Stability.
Data set [9] in a line: Metabolic stability in rat plasma assessed as parent compound remaining after 120 mins. The following applies: read-out: Stability. In kind it is ADME, cell-free.
The nature of data set [10]: Metabolic stability in mouse plasma assessed as parent compound remaining after 120 mins. The following applies: read-out: Stability. In kind it is ADME, cell-free.
For data set [11], the system named is HepG2. Nature of the data set: Cytotoxicity against human HepG2 cells. In kind it is cell-based.
Data set [12] in a line: Aqueous solubility of the compound. In kind it is physicochemical. The note with it: buffer.
The target in data set [13] is Voltage-gated inwardly rectifying potassium channel KCNH2 (Homo sapiens, UniProt Q12809). Nature of the data set: Inhibition of human ERG.
The target of data set [14] is T1, P2Y purinoceptor 14 (Homo sapiens, UniProt Q15391).
T1 sequence (Q15391 whole entry): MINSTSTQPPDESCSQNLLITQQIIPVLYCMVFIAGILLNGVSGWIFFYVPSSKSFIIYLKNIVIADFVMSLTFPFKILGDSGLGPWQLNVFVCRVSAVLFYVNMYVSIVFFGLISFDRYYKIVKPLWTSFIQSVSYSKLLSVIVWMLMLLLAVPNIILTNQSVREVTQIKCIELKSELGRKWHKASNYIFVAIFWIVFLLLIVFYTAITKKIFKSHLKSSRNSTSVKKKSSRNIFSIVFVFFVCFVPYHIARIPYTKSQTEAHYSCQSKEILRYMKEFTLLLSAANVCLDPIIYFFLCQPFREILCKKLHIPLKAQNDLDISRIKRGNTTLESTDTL
Description: Displacement of MRS4174 from human P2Y14R expressed in CHO cells preincubated for 30 mins followed by MRS4174 addition measured after 30 mins by flow cytometric method

Voltage-gated inwardly rectifying potassium channel KCNH2, sequence (Q12809 whole entry): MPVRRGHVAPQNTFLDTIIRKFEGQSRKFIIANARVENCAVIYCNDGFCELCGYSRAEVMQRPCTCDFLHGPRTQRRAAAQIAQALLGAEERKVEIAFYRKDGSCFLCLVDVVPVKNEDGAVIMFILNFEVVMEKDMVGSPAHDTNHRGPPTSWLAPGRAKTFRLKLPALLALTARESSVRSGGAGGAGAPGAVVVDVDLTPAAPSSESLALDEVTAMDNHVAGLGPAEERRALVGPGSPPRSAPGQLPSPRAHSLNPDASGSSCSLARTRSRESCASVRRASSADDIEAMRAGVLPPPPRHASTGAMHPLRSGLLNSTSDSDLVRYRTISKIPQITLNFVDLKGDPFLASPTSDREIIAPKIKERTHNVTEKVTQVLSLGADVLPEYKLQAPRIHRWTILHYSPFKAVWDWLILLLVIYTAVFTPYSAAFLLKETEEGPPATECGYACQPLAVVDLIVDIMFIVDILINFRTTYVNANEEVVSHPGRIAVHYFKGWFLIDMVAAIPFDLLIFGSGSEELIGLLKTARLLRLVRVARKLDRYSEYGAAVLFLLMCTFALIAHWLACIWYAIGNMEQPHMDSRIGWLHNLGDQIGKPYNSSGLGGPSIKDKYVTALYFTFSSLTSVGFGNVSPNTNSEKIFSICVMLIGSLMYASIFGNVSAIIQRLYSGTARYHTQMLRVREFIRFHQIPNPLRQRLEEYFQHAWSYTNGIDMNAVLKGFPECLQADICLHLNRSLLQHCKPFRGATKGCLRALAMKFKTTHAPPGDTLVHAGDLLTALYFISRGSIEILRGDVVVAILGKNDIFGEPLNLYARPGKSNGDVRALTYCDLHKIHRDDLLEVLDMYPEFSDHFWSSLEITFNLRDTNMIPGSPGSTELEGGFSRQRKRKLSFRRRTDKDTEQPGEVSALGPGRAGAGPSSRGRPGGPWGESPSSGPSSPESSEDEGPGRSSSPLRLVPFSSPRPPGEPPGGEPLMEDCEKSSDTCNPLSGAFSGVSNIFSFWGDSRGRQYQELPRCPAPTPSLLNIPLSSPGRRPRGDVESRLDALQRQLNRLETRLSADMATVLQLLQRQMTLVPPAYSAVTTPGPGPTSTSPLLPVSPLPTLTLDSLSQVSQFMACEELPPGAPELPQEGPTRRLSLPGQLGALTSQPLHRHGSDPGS
Cytochrome P450 2C9, sequence (P11712 whole entry): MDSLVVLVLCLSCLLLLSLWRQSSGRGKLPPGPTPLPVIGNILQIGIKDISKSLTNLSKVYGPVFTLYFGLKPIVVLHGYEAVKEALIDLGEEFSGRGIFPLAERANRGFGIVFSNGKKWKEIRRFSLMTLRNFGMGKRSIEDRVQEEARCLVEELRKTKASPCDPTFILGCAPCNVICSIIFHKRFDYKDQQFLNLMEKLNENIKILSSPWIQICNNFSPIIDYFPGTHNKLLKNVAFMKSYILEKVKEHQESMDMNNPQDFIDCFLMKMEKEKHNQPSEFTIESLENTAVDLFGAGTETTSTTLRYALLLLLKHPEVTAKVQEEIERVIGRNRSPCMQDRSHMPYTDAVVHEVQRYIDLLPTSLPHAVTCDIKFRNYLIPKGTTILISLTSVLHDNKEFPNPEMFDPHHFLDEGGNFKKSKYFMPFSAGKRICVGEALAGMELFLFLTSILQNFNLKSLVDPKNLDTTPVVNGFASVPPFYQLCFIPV
Delta-type opioid receptor, sequence (P41143 whole entry): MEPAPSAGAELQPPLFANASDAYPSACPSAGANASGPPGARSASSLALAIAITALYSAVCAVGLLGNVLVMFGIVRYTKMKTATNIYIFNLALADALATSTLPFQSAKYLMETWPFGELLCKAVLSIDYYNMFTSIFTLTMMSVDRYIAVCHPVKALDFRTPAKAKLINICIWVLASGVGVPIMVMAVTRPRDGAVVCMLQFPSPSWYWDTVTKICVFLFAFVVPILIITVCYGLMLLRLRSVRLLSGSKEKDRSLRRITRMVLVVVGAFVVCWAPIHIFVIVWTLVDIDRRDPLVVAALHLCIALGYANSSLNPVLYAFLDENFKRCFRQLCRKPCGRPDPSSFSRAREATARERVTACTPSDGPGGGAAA
Cytochrome P450 2C19, sequence (P33261 whole entry): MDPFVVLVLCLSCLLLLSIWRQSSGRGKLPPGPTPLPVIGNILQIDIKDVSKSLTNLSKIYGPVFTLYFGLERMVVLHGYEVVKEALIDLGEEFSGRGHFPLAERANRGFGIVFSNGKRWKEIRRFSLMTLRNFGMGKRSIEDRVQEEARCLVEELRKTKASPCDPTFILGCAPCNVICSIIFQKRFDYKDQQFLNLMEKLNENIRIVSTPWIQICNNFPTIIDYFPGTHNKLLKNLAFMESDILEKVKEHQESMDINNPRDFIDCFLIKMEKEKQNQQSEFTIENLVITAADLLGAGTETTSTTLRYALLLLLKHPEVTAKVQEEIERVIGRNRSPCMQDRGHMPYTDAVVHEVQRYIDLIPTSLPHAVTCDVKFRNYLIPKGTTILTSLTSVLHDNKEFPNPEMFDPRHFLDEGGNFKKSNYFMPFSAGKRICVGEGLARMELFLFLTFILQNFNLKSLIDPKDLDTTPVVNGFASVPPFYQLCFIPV
Cytochrome P450 3A4, sequence (P08684 whole entry): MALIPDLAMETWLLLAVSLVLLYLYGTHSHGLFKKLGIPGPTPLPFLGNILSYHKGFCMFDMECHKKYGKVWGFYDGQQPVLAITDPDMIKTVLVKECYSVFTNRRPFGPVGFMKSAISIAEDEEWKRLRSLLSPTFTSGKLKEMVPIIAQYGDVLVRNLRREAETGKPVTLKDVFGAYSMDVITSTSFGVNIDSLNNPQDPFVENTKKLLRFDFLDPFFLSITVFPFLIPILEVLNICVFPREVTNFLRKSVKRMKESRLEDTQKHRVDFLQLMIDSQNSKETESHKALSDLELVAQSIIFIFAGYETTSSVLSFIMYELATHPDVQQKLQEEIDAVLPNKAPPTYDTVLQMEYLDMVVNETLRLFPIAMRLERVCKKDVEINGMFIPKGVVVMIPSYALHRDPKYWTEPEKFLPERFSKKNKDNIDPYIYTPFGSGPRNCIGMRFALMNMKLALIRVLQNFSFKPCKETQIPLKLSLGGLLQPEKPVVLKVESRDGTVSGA
Cytochrome P450 1A2, sequence (P05177 whole entry): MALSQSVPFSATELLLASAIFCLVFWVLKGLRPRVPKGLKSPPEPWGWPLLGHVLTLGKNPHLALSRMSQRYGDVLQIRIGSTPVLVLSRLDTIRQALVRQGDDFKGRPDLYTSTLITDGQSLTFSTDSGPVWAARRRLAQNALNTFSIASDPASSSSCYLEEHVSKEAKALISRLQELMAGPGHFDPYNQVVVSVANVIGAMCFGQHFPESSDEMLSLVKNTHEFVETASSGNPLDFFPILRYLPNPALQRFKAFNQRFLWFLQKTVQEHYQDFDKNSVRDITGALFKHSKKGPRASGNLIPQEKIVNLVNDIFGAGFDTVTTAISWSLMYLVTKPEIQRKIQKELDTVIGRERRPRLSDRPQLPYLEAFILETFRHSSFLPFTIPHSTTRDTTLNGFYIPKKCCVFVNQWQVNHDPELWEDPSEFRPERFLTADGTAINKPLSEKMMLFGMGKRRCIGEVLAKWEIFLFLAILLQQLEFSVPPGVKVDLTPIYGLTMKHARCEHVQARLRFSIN
Cytochrome P450 2D6, sequence (P10635 whole entry): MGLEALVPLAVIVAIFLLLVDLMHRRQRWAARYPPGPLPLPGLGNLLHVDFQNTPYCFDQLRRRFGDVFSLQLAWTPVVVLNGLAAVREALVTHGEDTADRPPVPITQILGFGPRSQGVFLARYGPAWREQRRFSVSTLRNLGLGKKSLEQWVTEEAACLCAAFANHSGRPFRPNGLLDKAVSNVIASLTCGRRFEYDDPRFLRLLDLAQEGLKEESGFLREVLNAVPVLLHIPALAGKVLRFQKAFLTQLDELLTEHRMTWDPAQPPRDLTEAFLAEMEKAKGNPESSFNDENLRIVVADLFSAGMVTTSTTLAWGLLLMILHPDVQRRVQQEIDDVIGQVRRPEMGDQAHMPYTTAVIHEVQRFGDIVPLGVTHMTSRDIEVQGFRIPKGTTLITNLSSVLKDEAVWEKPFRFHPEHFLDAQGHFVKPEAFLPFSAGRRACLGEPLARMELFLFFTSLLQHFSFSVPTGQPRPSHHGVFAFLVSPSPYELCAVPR

For `CCN(CC)CC.NC(=O)c1ccc(-c2cc(C(=O)O)cc(-n3cc(-c4ccc(C(F)(F)F)cc4)nn3)c2)cc1`, in data set [1], affinity was put at a Ki of 1.47 µM. Moreover, the half-life (usually how long it takes for the measured level to halve) in data set [2] is 12 min. Also, the IC50 – broadly, the concentration that inhibits the measured activity by half – is not below 30 µM in data set [3]; not below 30 µM in data set [4]; not below 30 µM in [5]; not below 30 µM in data set [6]; not below 30 µM in data set [7]; 0.166 µM in data set [13]. Further, in data set [14], the IC50 was 0.269 µM. Also, the remaining at 2 h in [8], in [9] and in data set [10] was 94 to 100% in each case. The half-maximal cytotoxic concentration (CC50) (commonly the concentration giving 50% cytotoxicity) in data set [11] is more than 30 µM. For the same molecule, in data set [12], the solubility (usually the concentration that dissolves in the medium under given conditions) turned out to be 138 µg/mL.

The values above are taken from ChEMBL document CHEMBL4184336, “Structure-Guided Modification of Heterocyclic Antagonists of the P2Y14 Receptor” (J Med Chem, 2018).
